In US5334596A, “Fibrinogen receptor antagonists” (Merck & Co., Inc., priority 1993, dated 1994):
pIC50: −log10 of the molar value.

Tests used:
[1] = system: gel-filtered human platelets; test: ADP-stimulated platelet aggregation (gel-filtered human platelets, fibrinogen, Ca2+); format: cell-based; settings: gel-filtered human platelets 2×10^8 per ml, fibrinogen 100 ug/ml, Ca2+ 1 mM, 10 mM ADP, 37° C., read-out: IC50 (inhibition of platelet aggregation by 50% relative to a control lacking the compound)
Procedure: Platelet aggregation is measured at 37° C. in a Chronolog aggregometer. The reaction mixture contains gel-filtered human platelets (2×10^8 per ml), fibrinogen (100 micrograms per ml (ug/ml)), Ca^2+ (1 mM), and the compound to be tested. The aggregation is initiated by adding […] ADP 1 minute after the other components are added. The reaction is then allowed to proceed for at least 2 minutes. The extent of inhibition of aggregation is expressed as the percentage of the rate of aggregation observed in the absence of inhibitor. The IC50 is the dose of a particular compound inhibiting aggregation by 50% relative to a control lacking the compound.
In addition to the following preparative procedures, several examples of in-vitro bioactivity of compounds within the scope of the present invention are indicated. To illustrate, one test which is used to evaluate fibrinogen receptor antagonist activity is based on evaluation of inhibition of ADP-stimulated platelets. Aggregation requires that fibrinogen bind to and occupy the platelet fibrinogen receptor site. Inhibitors of fibrinogen binding inhibit aggregation. In the ADP-stimulated platelet aggregation assay used to determine inhibition associated with the compounds claimed in the instant invention, human platelets are isolated from fresh blood, collected into acid citrate/dextrose by differential centrifugation followed by gel filtration on Sepharose 2B in divalent ion-free Tyrode's buffer (pH 7.4) containing 2% bovine serum albumin.

[2] = system: cell attachment-promoting effects of fibronectin and vitronectin; settings: background section; cited from earlier work
gp IIb/IIIa complex = settings: literature, background section; cited from earlier work

Compound | pIC50 [1] | further results
CCCCS(=O)(=O)N[C@@H](CNC(=O)c1csc2c1C(=O)N(CCC1CCNCC1)CC2)C(=O)O [2-11, 3-[3-(2(S)-n-Butylsulfonylamino)propionic acid]carboxamide-4-oxo-5-[2-(4-piperidinyl)ethyl]-4,5,6,7-tetrahydro[3,2-c]pyridine] | 4.48 | 
C[C@H](CC(=O)O)NC(=O)c1cc2c(s1)CCN(CCC1CCNCC1)C2=O [2-21, 2-[3-(3(R)-Methyl)propionic acid]carboxamide-4-oxo-5-[2-(4-piperidinyl)ethyl]-4,5,6,7-tetrahydrothieno[3,2-c]pyridine] | 6.66 | 
CCCCS(=O)(=O)N[C@@H](CNC(=O)c1cc2c(s1)CCN(CCC1CCNCC1)C2=O)C(=O)O [2-9, 2-[3-(2(S)-n-butylsulfonylamino)propionic acid]carboxamide-4-oxo-5-[2-(4-piperidinyl)ethyl]-4,5,6,7-tetrahydro[3,2-c]pyridine] | 8.10 | 
arginine-glycine-aspartic acid [Arg-Gly-Asp] |  | activity of the tripeptide [2]: low activity
O=C(NCc1ccccc1)N[C@@H](CNC(=O)c1cc2c(s1)CCN(CCC1CCNCC1)C2=O)C(=O)O [2-17, 2-[3-(2(S)-benzylureido)propionic acid]carboxamide-4-oxo-5-[2-(4-piperidinyl)ethyl]-4,5,6,7-tetrahydro[3,2-c]pyridine] | 7.60 | 
O=C(NC[C@H](NS(=O)(=O)c1ccccc1)C(=O)O)c1cc2c(s1)CCN(CCC1CCNCC1)C2=O [2-14, 2-[3-(2(S)-Phenylsulfonylamino)propionic acid]carboxamide-4-oxo-5-[2-(4-piperidinyl)ethyl]-4,5,6,7-tetrahydro[3,2-c]pyridine] | 8.10 | 
O=C(O)CCNC(=O)c1cc2c(s1)C(=O)N(CCC1CCNCC1)C2=O [1-6, 5-(2-Carboxyethyl)carboxamide-[N-2-(4-Piperidinyl)ethyl]-2,3-thiophenedicarboximide] | 5.30 | 
O=C(O)CCNC(=O)c1cc2c(s1)CCN(CCC1CCNCC1)C2=O [3-3, 2-[3-(Propionic acid)]carboxamide-4-oxo-5-[2-(piperidinyl)]ethyl-4,5,6,7-tetrahydrothieno[3,2-c]pyridine] | 6.82 | 
Echistatin |  | affinity for the gp IIb/IIIa complex (gp IIb/IIIa complex): high affinity
O=C(O)CCCC(=O)c1cc2c(s1)CCN(CCC1CCNCC1)C2=O [4-3] | 6.59 | 
